In US20250179059A1 (The Regents of the University of California, priority 2021, published 2025) one finds GI50 and IC50 data, which are given here for 18 compounds.

Each structure is given as a SMILES string. pIC50: −log10 of the molar value. Like-named read-outs stand apart in the source and are kept apart here.

The test system of experiment [1] is human SKM-1 acute myeloid leukemia cells. The experiment can be described thus: SKM-1 antiproliferation cell-based assay (ATPlite). Particulars: Homo sapiens. The method, boiled down: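 Log-phase cells in RPMI 1640/15% FBS were seeded at 34722 cells/mL and exposed for 4 days to nine-concentration DMSO serial dilutions in triplicate. Viability was read as ATP luminescence (ATPlite 1step), and IC50 values came from variable-slope non-linear regression.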

The target in experiment [2] is T1, human BRD4 bromodomain II (Homo sapiens, UniProt O60885).
T1 construct: human BRD4 bromodomain II [based on Genbank NM_058243, residues 349-460]; host or cells: E. coli
The experiment can be described thus: Bromodomain binding assay (AlphaScreen), BRD4 BDII. The method, boiled down:
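Inhibition of acetyl-H4 peptide binding to human BRD4 bromodomains is measured by bead-based proximity (AlphaScreen) in pH 7.5 HEPES buffer containing 0.05% CHAPS and 0.1% BSA. Ten compound concentrations in 3-fold steps give competitive binding IC50s.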
(In Alpha technology, singlet oxygen from a donor bead excites a nearby acceptor bead.)

Where [3] appears, read: SKM-1, 96 h, SKM-1 antiproliferation assay, 4 days, Table C2.
Where [4] appears, read: AlphaScreen assay, Table C2, read-out: BRD4 BDII IC50.
[5] abbreviates: SKM-1, SKM-1 antiproliferation assay.
Setting [6] is: BRD4 BDII AlphaScreen assay, read-out: BRD4 BD2 IC50.

Usually GI50 stands for the concentration that inhibits growth by half. A lower GI50 goes with more potent growth inhibition. The term pIC50 denotes the negative decadic logarithm of the IC50, by convention in mol/L. As for `Cn1ccn(-c2ccc(-c3cc(F)cc(-c4cc(N5CC[C@H](N)C5)c5nn[nH]c5c4)c3O)cc2Cl)c1=O` [Example 537, (S)-1-(3′-(4-(3-aminopyrrolidin-1-yl)-1H-benzo[d][1,2,3]triazol-6-yl)-3-chloro-5′-fluoro-2′-hydroxy-[1,1′-biphenyl]-4-yl)-3-methyl-1H-imidazol-2(3H)-one], in experiment [1] (setting [3]), the GI50 fell in the range of 30 to 300 nM. Besides, the pIC50 in experiment [2] (setting [4]) was 8.00 to 9.00.

In experiment [1] (setting [3]), `CN1CCN(c2ccc(-c3cccc(-c4ccnc(N5CCC(N)CC5)c4)c3O)cc2Cl)C1=O` [Example 300, 1-(3′-(2-(4-aminopiperidin-1-yl)pyridin-4-yl)-3-chloro-2′-hydroxy-[1,1′-biphenyl]-4-yl)-3-methylimidazolidin-2-one] came in with a GI50 of 30 to 300 nM. Further, in experiment [2] (setting [4]), the negative-log IC50 (pIC50) is 8.00 to 9.00.

Compound `Cc1cc(-c2ccc(-n3ccn(C)c3=O)c(Cl)c2)c(O)c(-c2cncc(N3CCN(C(C)(C)C)CC3)c2)n1` [Example 1004, 1-(4-(5′-(4-(tert-butyl)piperazin-1-yl)-3-hydroxy-6-methyl-[2,3′-bipyridin]-4-yl)-2-chlorophenyl)-3-methyl-1H-imidazol-2(3H)-one] displayed a concentration for 50% growth inhibition (GI50) in experiment [1] (setting [5]) of 0.3 to 30 nM. In addition, the negative-log IC50 (pIC50) in experiment [2] (setting [6]) was 8.00 to 9.00.

In the case of `Cc1cc(-c2ccc(-n3ccn(C)c3=O)c(Cl)c2)c(O)c(-c2cnc(N(C)C)c(N3CCN(C(C)(C)C)CC3)c2)n1` [Example 964, 1-(4-(5′-(4-(tert-butyl)piperazin-1-yl)-6′-(dimethylamino)-3-hydroxy-6-methyl-[2,3′-bipyridin]-4-yl)-2-chlorophenyl)-3-methyl-1H-imidazol-2(3H)-one], the GI50 in experiment [1] (setting [5]) lay in the range of 0.3 to 30 nM. Further, the pIC50 in experiment [2] (setting [6]) is 9.00 to 11.00.

In the case of `CC(C)c1cc(-c2cc(F)cc(-c3cccc(N4CCN(C(C)(C)C)CC4)c3)c2O)cc(Cl)c1-n1ccn(C)c1=O` [Example 932, 1-(3″-(4-(tert-butyl)piperazin-1-yl)-3-chloro-5′-fluoro-2′-hydroxy-5-isopropyl-[1,1′:3′,1″-terphenyl]-4-yl)-3-methyl-1H-imidazol-2(3H)-one], in experiment [1] (setting [5]), the GI50 fell in the range of 300 to 3000 nM. For the same compound, the pIC50 in experiment [2] (setting [6]) is less than 7.00.

In experiment [1] (setting [3]), `Cn1ccn(-c2ccc(-c3cc(F)cc(-c4ccnc(N5CCN(C6CC6)CC5)c4)c3O)cc2Cl)c1=O` [Example 531, 1-(3-chloro-3′-(2-(4-cyclopropylpiperazin-1-yl)pyridin-4-yl)-5′-fluoro-2′-hydroxy-[1,1′-biphenyl]-4-yl)-3-methyl-1H-imidazol-2(3H)-one] returned a GI50 of 30 to 300 nM. Further, in experiment [2] (setting [4]), the pIC50 is 8.00 to 9.00.

On to `C[C@@H]1CN(c2cc(-c3cccc(-c4ccc(N5CCCC5=O)c(Cl)c4)c3O)ccn2)CCN1` [Example 253, (R)-1-(3-chloro-2′-hydroxy-3′-(2-(3-methylpiperazin-1-yl)pyridin-4-yl)-[1,1′-biphenyl]-4-yl)pyrrolidin-2-one], for which the GI50 in experiment [1] (setting [3]) lay in the range of 300 to 3000 nM. Moreover, in experiment [2] (setting [4]), the pIC50 was 8.00 to 9.00.

Take `CC(=O)Nc1ccc(-c2cc(Cl)cc(-c3ccnc(N4CCNCC4)c3)c2O)cc1F` [Example 268, N-(5′-chloro-3-fluoro-2′-hydroxy-3′-(2-(piperazin-1-yl)pyridin-4-yl)-[1,1′-biphenyl]-4-yl)acetamide]: the GI50 in experiment [1] (setting [3]) was in the range of 30 to 300 nM. Besides, the negative logarithm of the IC50 (pIC50) in experiment [2] (setting [4]) is 8.00 to 9.00.

In experiment [1] (setting [3]), `Cc1cc(-c2cc(F)cc(-c3ccc(-n4ccn(C)c4=O)c(Cl)c3)c2O)cc(N2CC[C@H](N)C2)n1` [Example 517, (S)-1-(3′-(2-(3-aminopyrrolidin-1-yl)-6-methylpyridin-4-yl)-3-chloro-5′-fluoro-2′-hydroxy-[1,1′-biphenyl]-4-yl)-3-methyl-1H-imidazol-2(3H)-one] returned a GI50 of 0.3 to 30 nM. In addition, the pIC50 in experiment [2] (setting [4]) is 9.00 to 11.00.

`Cn1ccn(-c2ccc(-c3cc(F)cc(-c4cncc(N5CC6CCC(C5)N6)c4)c3O)cc2Cl)c1=O` [Example 512, 1-(3′-(5-(3,8-diazabicyclo[3.2.1]octan-3-yl)pyridin-3-yl)-3-chloro-5′-fluoro-2′-hydroxy-[1,1′-biphenyl]-4-yl)-3-methyl-1H-imidazol-2(3H)-one] had a GI50 in experiment [1] (setting [3]) of 0.3 to 30 nM. In addition, the negative logarithm of the IC50 (pIC50) in experiment [2] (setting [4]) was 8.00 to 9.00.

For the compound `CC(=O)Nc1cc(-c2cc(F)cc(-c3ccc(N4CCN(C)C4=O)c(Cl)c3)c2O)cc(N2CCNCC2)n1` [Example 433, N-(4-(3′-chloro-5-fluoro-2-hydroxy-4′-(3-methyl-2-oxoimidazolidin-1-yl)-[1,1′-biphenyl]-3-yl)-6-(piperazin-1-yl)pyridin-2-yl)acetamide], the GI50 in experiment [1] (setting [3]) was in the range of 0.3 to 30 nM. Besides, in experiment [2] (setting [4]), the pIC50 was 8.00 to 9.00.

In experiment [1] (setting [3]), `CC(=O)NC1(C)CCN(c2cc(-c3cc(F)cc(-c4ccc(-n5ccn(C)c5=O)c(Cl)c4)c3O)ccn2)C1` (stereo not drawn) [Example 782, N-(1-(4-(3′-chloro-5-fluoro-2-hydroxy-4′-(3-methyl-2-oxo-2,3-dihydro-1H-imidazol-1-yl)-[1,1′-biphenyl]-3-yl)pyridin-2-yl)-3-methylpyrrolidin-3-yl)acetamide] had a GI50 of 30 to 300 nM. The pIC50 in experiment [2] (setting [4]) is 9.00 to 11.00.

In experiment [1] (setting [3]), `Cc1cc(-c2ccnc(N3CC[C@H](N)C3)c2)c(O)c(-c2ccc(-n3ccn(C)c3=O)c(Cl)c2)c1` [Example 498, (S)-1-(3′-(2-(3-aminopyrrolidin-1-yl)pyridin-4-yl)-3-chloro-2′-hydroxy-5′-methyl-[1,1′-biphenyl]-4-yl)-3-methyl-1H-imidazol-2(3H)-one] came in with a GI50 of 0.3 to 30 nM. Further, the pIC50 in experiment [2] (setting [4]) is 9.00 to 11.00.

Turning to `Cn1ccn(-c2ccc(-c3cc(F)cc(-c4cccc(C5(N)CC5)c4)c3O)cc2Cl)c1=O` [Example 803, 1-(3″-(1-aminocyclopropyl)-3-chloro-5′-fluoro-2′-hydroxy-[1,1′:3′,1″-terphenyl]-4-yl)-3-methyl-1H-imidazol-2(3H)-one], in experiment [1] (setting [3]), the GI50 is 30 to 300 nM. In experiment [2] (setting [4]), the negative-log IC50 (pIC50) is 8.00 to 9.00.

The compound `Cn1ccn(-c2ccc(-c3cc(F)cc(-c4cccc(C#CC(C)(C)O)c4)c3O)cc2Cl)c1=O` [Example 772, 1-(3-chloro-5′-fluoro-2′-hydroxy-3″-(3-hydroxy-3-methylbut-1-yn-1-yl)-[1,1′:3′,1″-terphenyl]-4-yl)-3-methyl-1H-imidazol-2(3H)-one] registered a GI50 in experiment [1] (setting [3]) of 300 to 3000 nM. Also, the pIC50 in experiment [2] (setting [4]) was 7.00 to 8.00.

As to `[2H]C([2H])([2H])Oc1ncc(-c2cc(F)cc(-c3ccc(-n4ccn(C)c4=O)c(Cl)c3)c2O)cc1N1CCN(C(C)(C)C)CC1` [Example 926, 1-(3′-(5-(4-(tert-Butyl)piperazin-1-yl)-6-(methoxy-d3)pyridin-3-yl)-3-chloro-5′-fluoro-2′-hydroxy-[1,1′-biphenyl]-4-yl)-3-methyl-1,3-dihydro-2H-imidazol-2-one], in experiment [1] (setting [5]), the GI50 fell in the range of 0.3 to 30 nM. Besides, the pIC50 in experiment [2] (setting [6]) was 9.00 to 11.00.

Compound `CNc1ncc(-c2nc(C)cc(-c3ccc(-n4ccn(C)c4=O)c(Cl)c3)c2O)cc1N1CCC2(CCCN2C(C)C)C1` (stereo not drawn) [Example 985, 1-(2-chloro-4-(3-hydroxy-5′-(1-isopropyl-1,7-diazaspiro[4.4]nonan-7-yl)-6-methyl-6′-(methylamino)-[2,3′-bipyridin]-4-yl)phenyl)-3-methyl-1H-imidazol-2(3H)-one] returned a GI50 in experiment [1] (setting [5]) of 0.3 to 30 nM. In addition, the pIC50 in experiment [2] (setting [6]) is 8.00 to 9.00.

Turning to `O=C1CCCN1c1ccc(-c2cccc(-c3ccnc(N4CC5(CNC5)C4)c3)c2O)cc1F` [Example 284, 1-(3′-(2-(2,6-diazaspiro[3.3]heptan-2-yl)pyridin-4-yl)-3-fluoro-2′-hydroxy-[1,1′-biphenyl]-4-yl)pyrrolidin-2-one], the 50% growth inhibitory concentration (GI50) in experiment [1] (setting [3]) lay within 300 to 3000 nM. Further, in experiment [2] (setting [4]), the negative logarithm of the IC50 (pIC50) is 7.00 to 8.00.
